# In US10029994B2, “Isoxazole hydroxamic acid compounds as LpxC inhibitors” (priority 2014, dated 2018):
# Read-outs that look alike come from different tables or passages of the source.
# How the values were obtained:
# P. aeruginosa LpxC = target: T1, P. aeruginosa LpxC (Pseudomonas aeruginosa, UniProt P47205); test: P. aeruginosa LpxC Inhibition Assay (LC-MS/MS); assay type: biochemical; details: 1 nM P. aeruginosa LpxC, 30 min pre-incubation, 2 μM UDP-3-O-(R-3-hydroxydecanoyl)-GlcNAc, pH 7.5
# T1 construct: made in house
# T1 sequence (P47205 1-303): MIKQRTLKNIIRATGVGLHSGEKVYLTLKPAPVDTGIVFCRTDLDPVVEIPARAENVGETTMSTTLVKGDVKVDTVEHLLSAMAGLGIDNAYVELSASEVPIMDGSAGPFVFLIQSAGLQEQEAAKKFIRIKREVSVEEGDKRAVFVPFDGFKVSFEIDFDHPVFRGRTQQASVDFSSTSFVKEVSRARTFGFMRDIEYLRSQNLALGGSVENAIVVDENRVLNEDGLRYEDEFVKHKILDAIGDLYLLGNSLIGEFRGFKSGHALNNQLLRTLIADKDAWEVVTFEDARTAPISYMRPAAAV
# From the text: P. aeruginosa LpxC Inhibition Assay
# The P. aeruginosa LpxC protein is produced according to the general method of Hyland et al (Journal of Bacteriology 1997 179, 2029-2037: Cloning, expression and purification of UDP-3-O-acyl-GlcNAc deacetylase from Pseudomonas aeruginosa: a metalloamidase of the lipid A biosynthesis pathway). The LC-MS/MS method for quantitation of LpxC product was developed using an Agilent 1200 Capillary HPLC system coupled to an Applied Biosystems MDS Sciex 4000QTRAP mass spectrometer. Both instruments are controlled using the Applied Biosystems MDS Sciex Analyst software. LpxC reaction product (UDP-3-O—(R-3-hydroxyacyl)-glucosamine) was produced by hydrolysis of LpxC substrate catalyzed by P.a. LpxC and purified using reversed phase chromatography on a Phenomenex Luna C18(2) 4.6×50 mm column. An LpxC product calibration curve was generated to evaluate the sensitivity and dynamic range of the LC-MS/MS method. Briefly, compounds are pre-incubated with 1 nM P. aeruginosa LpxC for 30 min. at room temperature. Reactions are initiated by the addition of 2 μM UDP-3-O—(R-3-hydroxydecanoyl)-GlcNAc. Reactions are conducted in a 384-well plate with a total volume of 50 μL in each well containing 50 mM Sodium phosphate pH 7.5, 0.005% Trition X-100 for 20 min at room temperature. After quenching with 1.8% HOAc (5 μL of a 20% HOAc added to each well), reaction mixtures are analyzed using the LC-MS/MS method and peak areas are transformed into product concentration using a LpxC product calibration curve. Total activity (0% inhibition control) is obtained from reactions with no inhibitors and 100% inhibition control is the background using quenched samples before reaction starts. For IC50 determinations, peak areas are converted to percent inhibition in Microsoft Excel. Percent inhibition values are plotted vs. log compound concentration using XLfit. Data is fit to the four-parameter logistic equation using the non-linear regression algorithm in XLfit to return the IC50 and hill slope values.
# P. A. PAO1 NB52019 = test: MIC, broth microdilution (CLSI); assay type: cell-based, Pseudomonas aeruginosa; details: Pseudomonas aeruginosa, read-out: P. A. PAO1 NB52019 MIC
# Method: (§1) Bacterial isolates were cultivated from −70° C. frozen stocks by two consecutive overnight passages at 35° C. in ambient air on 5% blood agar (Remel, Lenexa, Kans.). Quality control strain, P. aeruginosa ATCC 27853, A. baumannii ATCC19606 and E. coli ATCC 25922 are from the American Type Culture Collection (ATCC; Rockville, Md.) and PAO1 was received from Dr. K. Poole.
# (§2) Minimal Inhibitory Concentrations (MICs) were determined by the broth microdilution method in accordance with Clinical and Laboratories Institute (CLSI) guidelines (CLSI M100-S25, Performance Standards for Antimicrobial Susceptibility Testing; Twenty-fifth Informational Supplement). In brief, fresh bacterial overnight cultures were resuspended in sterile saline, adjusted to a 0.5 McFarland turbidity standard and then diluted 2000-fold in cation adjusted Mueller-Hinton Broth II (MHB; Remel BBL) to yield a final inoculum of approximately 5×10^5 colony-forming units (CFU)/mL. Two-fold serial dilutions of compounds were prepared in 100% dimethyl sulfoxide (DMSO) at 100-fold the highest final assay concentration; the resulting dilution series of compounds were diluted 1:10 with sterile water. Ten μl of the drug dilution series in 10% DMSO was transferred to microtiter wells and 90 μl of bacterial suspension was inoculated into the wells. For testing the ability of compounds to potentiate the activity of known antibiotics, the assay was modified as follows; known antibiotics were added to the bacterial inoculum at 1.1-fold the final assay concentration indicated in Table A. All inoculated microdilution trays were incubated in ambient air at 35° C. for 20 hours. Following incubation, assay plates were read in a microtiter plate reader at 600 nm and visually inspected to confirm the MIC endpoint well with the OD value. The lowest concentration of the compound that prevented visible growth was recorded as the MIC. Performance of the assay was monitored by testing ciprofloxacin against the laboratory quality control strain in accordance with guidelines of the CLSI.
# E. C. ATCC 25922 = test: MIC, broth microdilution (CLSI); assay type: cell-based, Escherichia coli; details: Escherichia coli, ATCC25922, 20 h, read-out: E. C. ATCC 25922 MIC
# Method: as §1, §2
# E. C. ATCC 29522 = test: MIC in the presence of sub-inhibitory rifampicin (potentiation/synergy); assay type: cell-based, Escherichia coli; details: +2 μg/ml rifampicin (RIF); broth microdilution, 35° C., 20 hours
# Method: as §1, §2
# A. B. ATCC 19606 [1] = test: MIC, broth microdilution (CLSI); assay type: cell-based, Acinetobacter baumannii; details: Acinetobacter baumannii, read-out: A. B. ATCC 19606 MIC
# Method: as §1, §2
# A. B. ATCC 19606 [2] = test: MIC in the presence of sub-inhibitory rifampicin (potentiation/synergy); assay type: cell-based, Acinetobacter baumannii; details: +2 μg/ml rifampicin (RIF); broth microdilution, 35° C., 20 hours
# Method: as §1, §2
# [3] = PAO1, broth microdilution, 35° C., 20 hours
# [4] = broth microdilution, 35° C., 20 hours
# [5] = ATCC19606, broth microdilution, 35° C., 20 hours
Compound,IC50 (P. aeruginosa LpxC) [nM],MIC (P. A. PAO1 NB52019; [3]) [µg/mL],MIC (E. C. ATCC 25922; [4]) [µg/mL],E. C. ATCC 29522 (+2 μg/ml RIF) MIC (E. C. ATCC 29522) [µg/mL],MIC (A. B. ATCC 19606 [1]; [5]) [µg/mL],A. B. ATCC 19606 (+2 μg/ml RIF) MIC (A. B. ATCC 19606 [2]) [µg/mL],"MIC (P. A. PAO1 NB52019; PAO1, 20 h) [µg/mL]",MIC (E. C. ATCC 25922) [µg/mL],"MIC (A. B. ATCC 19606 [1]; ATCC19606, 20 h) [µg/mL]"
"C[C@@H](O)Cc1ccc(C#Cc2cc(CCC(C)(C(=O)NO)S(C)(=O)=O)no2)cc1 (stereo partly drawn) [Compound 2.5, N-hydroxy-4-(5-((4-((R)-2-hydroxypropyl)phenyl)ethynyl)isoxazol-3-yl)-2-methyl-2-(methylsulfonyl)butanamide]",< 1,1,0.25,0.125,> 64,0.5,,,
"CO[C@H](CO)c1ccc(C#Cc2cc(CC[C@](C)(C(=O)NO)S(C)(=O)=O)no2)cc1 [Compound 2.6, (R)—N-hydroxy-4-(5-((4-((S)-2-hydroxy-1-methoxyethyl)phenyl)ethynyl)-isoxazol-3-yl)-2-methyl-2-(methylsulfonyl)butanamide]",< 1,0.25,0.5,0.125,> 64,1,,,
"C[C@@](CCc1cc(C#Cc2ccc([C@H](O)CO)cc2)on1)(C(=O)NO)S(C)(=O)=O [Compound 2.7, (R)-4-(5-((4-((S)-1,2-dihydroxyethyl)phenyl)ethynyl)isoxazol-3-yl)-N-hydroxy-2-methyl-2-(methylsulfonyl)butanamide]",< 1,0.25,1,0.125,> 64,6,,,
"C[C@@](CCc1cc(C#Cc2ccc([C@@H](O)CO)cc2)on1)(C(=O)NO)S(C)(=O)=O [Compound 2.8, (R)-4-(5-((4-((R)-1,2-dihydroxyethyl)phenyl)ethynyl)isoxazol-3-yl)-N-hydroxy-2-methyl-2-(methylsulfonyl)butanamide]",< 1,0.25,1,0.125,> 64,1,,,
"Cc1cc([C@H](O)[C@](C)(NCc2cc(C#CC3CC3)on2)C(=O)NO)no1 [Compound 3.1, (2S,3R)-2-(((5-(cyclopropylethynyl)isoxazol-3-yl)methyl)amino)-N,3-dihydroxy-2-methyl-3-(5-methylisoxazol-3-yl)propanamide]",< 1,,,≤0.06,,≤0.06,0.5,1,> 64
"Cc1cc([C@H](O)[C@](C)(NCc2cc(C#CC3CCC3)on2)C(=O)NO)no1 [Compound 3.2, (2S,3R)-2-(((5-(cyclobutylethynyl)isoxazol-3-yl)methyl)amino)-N,3-dihydroxy-2-methyl-3-(5-methylisoxazol-3-yl)propanamide]",< 1,1,1,0.5,> 64,≤0.06,,,
"Cc1cc([C@H](O)[C@](C)(NCc2cc(C#Cc3ccccc3)on2)C(=O)NO)no1 [Compound 3.3, (2S,3R)—N,3-dihydroxy-2-methyl-3-(5-methylisoxazol-3-yl)-2-(((5-(phenylethynyl)isoxazol-3-yl)methyl)amino)propanamide]",< 1,0.25,≤ 0.06,0.06,64,≤0.06,,,
"CC(NCc1cc(C#Cc2ccccc2)on1)(C(=O)NO)C(O)c1cc(CO)on1 (stereo not drawn) [Compound 3.4, N,3-dihydroxy-3-(5-(hydroxymethyl)isoxazol-3-yl)-2-methyl-2-(((5-(phenylethynyl)isoxazol-3-yl)methyl)amino)propanamide]",< 1,0.5,1,≤0.06,> 64,0.125,,,
"COCCCCC#Cc1cc(CN[C@](C)(C(=O)NO)[C@@H](O)c2cc(C)on2)no1 [Compound 3.5, (2S,3R)—N,3-dihydroxy-2-(((5-(6-methoxyhex-1-yn-1-yl)isoxazol-3-yl)methyl)amino)-2-methyl-3-(5-methylisoxazol-3-yl)propanamide]",3,16,16,2,32,1,,,
"CC(NCc1cc(C#CC2CC2)on1)(C(=O)NO)C(O)c1cc(C2CC2)on1 (stereo not drawn) [Compound 3.6, 2-(((5-(cyclopropylethynyl)isoxazol-3-yl)methyl)amino)-3-(5-cyclopropylisoxazol-3-yl)-N, 3-dihydroxy-2-methylpropanamide]",2,4,2,0.5,64,0.125,,,
"CC/C=C/c1cc(CC[C@](C)(C(=O)NO)S(C)(=O)=O)no1 [Compound 4.1, (R,E)-4-(5-(but-1-en-1-yl)isoxazol-3-yl)-N-hydroxy-2-methyl-2-(methylsulfonyl)butanamide]",< 1,0.5,8,0.125,> 64,1,,,
